# Data reported in PubChem BioAssay (NCI).
#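 Interpolation was linear, between the two tested concentrations surrounding the appropriate level; five concentrations were tested over 48 hours in 96-well plates. TGI: total growth inhibition.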
# Columns and labels:
# Assay in all cases: growth of human tumour cells (NCI), 48 h
# LOX IMVI melanoma = test system: LOX IMVI melanoma
# HL-60(TB) leukemia = test system: HL-60(TB) leukemia
# HOP-92 NSCLC = test system: HOP-92 NSCLC
# SW-620 colon = test system: SW-620 colon
# NCI/ADR-RES ovarian = test system: NCI/ADR-RES ovarian
# UACC-257 melanoma = test system: UACC-257 melanoma
# NCI-H460 lung = test system: NCI-H460 lung
# BT-549 breast = test system: BT-549 breast
# HCT-15 colon = test system: HCT-15 colon
# MDA-N = test system: MDA-N
# SN12C renal = test system: SN12C renal
# SNB-19 CNS = test system: SNB-19 CNS
# SF-268 CNS = test system: SF-268 CNS
# HOP-62 NSCLC = test system: HOP-62 NSCLC
# COLO 205 colon = test system: COLO 205 colon
# PC-3 prostate = test system: PC-3 prostate
# SR leukemia = test system: SR leukemia
# SK-MEL-5 melanoma = test system: SK-MEL-5 melanoma
# NCI-H522 lung = test system: NCI-H522 lung
# ACHN renal = test system: ACHN renal
# A498 renal = test system: A498 renal
# RPMI-8226 leukemia = test system: RPMI-8226 leukemia
# OVCAR-5 ovarian = test system: OVCAR-5 ovarian
# HT29 colon = test system: HT29 colon
# SNB-75 CNS = test system: SNB-75 CNS
# OVCAR-8 ovarian = test system: OVCAR-8 ovarian
# UACC-62 melanoma = test system: UACC-62 melanoma
# OVCAR-3 ovarian = test system: OVCAR-3 ovarian
# M14 melanoma = test system: M14 melanoma
# SF-539 CNS = test system: SF-539 CNS
# RXF 393 renal = test system: RXF 393 renal
# U251 CNS = test system: U251 CNS
# K-562 leukemia = test system: K-562 leukemia
# NCI-H226 lung = test system: NCI-H226 lung
# CCRF-CEM leukemia = test system: CCRF-CEM leukemia
# SK-MEL-28 melanoma = test system: SK-MEL-28 melanoma
# SK-OV-3 ovarian = test system: SK-OV-3 ovarian
# HS 578T breast = test system: HS 578T breast
# MDA-MB-231 breast = test system: MDA-MB-231 breast
# UO-31 renal = test system: UO-31 renal
# SF-295 CNS = test system: SF-295 CNS
# TK-10 renal = test system: TK-10 renal
# A549 NSCLC = test system: A549 NSCLC
# DU-145 prostate = test system: DU-145 prostate
# MOLT-4 leukemia = test system: MOLT-4 leukemia
# CAKI-1 renal = test system: CAKI-1 renal
# 786-0 renal = test system: 786-0 renal
# HCC-2998 colon = test system: HCC-2998 colon
# MALME-3M melanoma = test system: MALME-3M melanoma
# HCT-116 colon = test system: HCT-116 colon
# SK-MEL-2 melanoma = test system: SK-MEL-2 melanoma
# MCF7 breast = test system: MCF7 breast
# MDA-MB-435 = test system: MDA-MB-435
# OVCAR-4 ovarian = test system: OVCAR-4 ovarian
# KM12 colon = test system: KM12 colon
# IGROV1 ovarian = test system: IGROV1 ovarian
# T-47D breast = test system: T-47D breast
# EKVX NSCLC = test system: EKVX NSCLC
# NCI-H23 lung = test system: NCI-H23 lung
structure (smiles),measurement,setting,value
C[N+]1(CCCCN2c3ccccc3Sc3cc(N=[N+]=[N-])ccc32)CCN(C(=O)CCNC(=O)Cc2ccc(C(=O)c3ccccc3)cc2)CC1,TGI,LOX IMVI melanoma,> 78.1 µM
same,TGI,HL-60(TB) leukemia,35.5 µM
same,TGI,HOP-92 NSCLC,40.5 µM
same,TGI,SW-620 colon,> 74.6 µM
same,TGI,NCI/ADR-RES ovarian,> 91.1 µM
same,TGI,UACC-257 melanoma,> 75.8 µM
same,TGI,NCI-H460 lung,> 74.2 µM
same,TGI,BT-549 breast,> 71.4 µM
same,TGI,HCT-15 colon,55.9 µM
same,TGI,MDA-N,> 71.9 µM
same,TGI,SN12C renal,53.5 µM
same,TGI,SNB-19 CNS,66.7 µM
same,TGI,SF-268 CNS,71.5 µM
same,TGI,HOP-62 NSCLC,44.9 µM
same,TGI,COLO 205 colon,34.9 µM
same,TGI,PC-3 prostate,40.7 µM
same,TGI,SR leukemia,65.5 µM
same,TGI,SK-MEL-5 melanoma,> 62.6 µM
same,TGI,NCI-H522 lung,> 76.9 µM
same,TGI,ACHN renal,37.2 µM
same,TGI,A498 renal,56.3 µM
same,TGI,RPMI-8226 leukemia,61.4 µM
same,TGI,OVCAR-5 ovarian,56.1 µM
same,TGI,HT29 colon,52.6 µM
same,TGI,SNB-75 CNS,43.3 µM
same,TGI,OVCAR-8 ovarian,> 100 µM
same,TGI,UACC-62 melanoma,> 69.2 µM
same,TGI,OVCAR-3 ovarian,89.2 µM
same,TGI,M14 melanoma,> 72.9 µM
same,TGI,SF-539 CNS,> 76.9 µM
same,TGI,RXF 393 renal,> 80 µM
same,TGI,U251 CNS,> 87.3 µM
same,TGI,K-562 leukemia,> 57.7 µM
same,TGI,NCI-H226 lung,> 85.7 µM
same,TGI,CCRF-CEM leukemia,64.2 µM
same,TGI,SK-MEL-28 melanoma,46.4 µM
same,TGI,SK-OV-3 ovarian,62 µM
same,TGI,HS 578T breast,> 83.1 µM
same,TGI,MDA-MB-231 breast,81 µM
same,TGI,UO-31 renal,39 µM
same,TGI,SF-295 CNS,45.5 µM
same,TGI,TK-10 renal,26.5 µM
same,TGI,A549 NSCLC,> 72.6 µM
same,TGI,DU-145 prostate,35.1 µM
same,TGI,MOLT-4 leukemia,> 76.8 µM
same,TGI,CAKI-1 renal,57.5 µM
same,TGI,786-0 renal,> 67.5 µM
same,TGI,HCC-2998 colon,39.9 µM
same,TGI,MALME-3M melanoma,70.8 µM
same,TGI,HCT-116 colon,> 75.4 µM
same,TGI,SK-MEL-2 melanoma,> 79.4 µM
same,TGI,MCF7 breast,68 µM
same,TGI,MDA-MB-435,> 67.7 µM
same,TGI,OVCAR-4 ovarian,48.8 µM
same,TGI,KM12 colon,61.2 µM
same,TGI,IGROV1 ovarian,> 77.6 µM
same,TGI,T-47D breast,> 76.4 µM
same,TGI,EKVX NSCLC,> 81.5 µM
same,TGI,NCI-H23 lung,> 82.4 µM
O=C1CCCC2=C1CC1=C(CCCC1=O)N2c1ccc(-c2ccccc2)cc1,TGI,LOX IMVI melanoma,> 100 µM
same,TGI,HL-60(TB) leukemia,> 100 µM
same,TGI,HOP-92 NSCLC,> 100 µM
same,TGI,SW-620 colon,> 100 µM
same,TGI,NCI/ADR-RES ovarian,> 100 µM
same,TGI,UACC-257 melanoma,> 100 µM
same,TGI,NCI-H460 lung,> 100 µM
same,TGI,BT-549 breast,> 100 µM
same,TGI,HCT-15 colon,> 100 µM
same,TGI,MDA-N,> 100 µM
same,TGI,SN12C renal,> 100 µM
same,TGI,SNB-19 CNS,> 100 µM
same,TGI,SF-268 CNS,> 100 µM
same,TGI,HOP-62 NSCLC,> 100 µM
same,TGI,COLO 205 colon,> 100 µM
same,TGI,PC-3 prostate,> 100 µM
same,TGI,SR leukemia,> 100 µM
same,TGI,SK-MEL-5 melanoma,> 100 µM
same,TGI,NCI-H522 lung,> 100 µM
same,TGI,ACHN renal,> 100 µM
same,TGI,A498 renal,> 100 µM
same,TGI,RPMI-8226 leukemia,> 100 µM
same,TGI,OVCAR-5 ovarian,> 100 µM
same,TGI,HT29 colon,> 100 µM
same,TGI,SNB-75 CNS,> 67.5 µM
same,TGI,OVCAR-8 ovarian,> 100 µM
same,TGI,UACC-62 melanoma,> 100 µM
same,TGI,OVCAR-3 ovarian,> 100 µM
same,TGI,M14 melanoma,> 100 µM
same,TGI,SF-539 CNS,> 100 µM
same,TGI,RXF 393 renal,> 58.9 µM
same,TGI,U251 CNS,> 100 µM
same,TGI,K-562 leukemia,> 100 µM
same,TGI,NCI-H226 lung,> 100 µM
same,TGI,CCRF-CEM leukemia,> 100 µM
same,TGI,SK-MEL-28 melanoma,> 100 µM
same,TGI,SK-OV-3 ovarian,> 100 µM
same,TGI,HS 578T breast,> 100 µM
same,TGI,MDA-MB-231 breast,> 100 µM
same,TGI,UO-31 renal,> 100 µM
same,TGI,SF-295 CNS,> 100 µM
same,TGI,TK-10 renal,> 100 µM
same,TGI,A549 NSCLC,> 100 µM
same,TGI,DU-145 prostate,> 100 µM
same,TGI,MOLT-4 leukemia,> 100 µM
same,TGI,CAKI-1 renal,> 100 µM
same,TGI,786-0 renal,> 100 µM
same,TGI,HCC-2998 colon,> 100 µM
same,TGI,MALME-3M melanoma,> 100 µM
same,TGI,HCT-116 colon,> 100 µM
same,TGI,SK-MEL-2 melanoma,> 100 µM
same,TGI,MCF7 breast,> 100 µM
same,TGI,MDA-MB-435,> 100 µM
same,TGI,OVCAR-4 ovarian,> 100 µM
same,TGI,KM12 colon,> 100 µM
same,TGI,IGROV1 ovarian,> 100 µM
same,TGI,T-47D breast,> 100 µM
same,TGI,EKVX NSCLC,> 100 µM
same,TGI,NCI-H23 lung,> 100 µM
OC(CCN1CCN(CCOC(c2ccc(F)cc2)c2ccc(F)cc2)CC1)c1ccc(Br)cc1 (configuration not stated),TGI,LOX IMVI melanoma,4.07 µM
same,TGI,HL-60(TB) leukemia,11.2 µM
same,TGI,HOP-92 NSCLC,13.7 µM
same,TGI,SW-620 colon,31.2 µM
same,TGI,NCI/ADR-RES ovarian,7.67 µM
same,TGI,UACC-257 melanoma,4.61 µM
same,TGI,NCI-H460 lung,7.37 µM
same,TGI,BT-549 breast,12.5 µM
same,TGI,HCT-15 colon,8.25 µM
same,TGI,MDA-N,6.93 µM
same,TGI,SN12C renal,7.12 µM
same,TGI,SNB-19 CNS,21.2 µM
same,TGI,SF-268 CNS,17.6 µM
same,TGI,HOP-62 NSCLC,14.5 µM
same,TGI,COLO 205 colon,3.84 µM
same,TGI,PC-3 prostate,17.8 µM
same,TGI,SR leukemia,4.13 µM
same,TGI,SK-MEL-5 melanoma,3.3 µM
same,TGI,NCI-H522 lung,16.4 µM
same,TGI,ACHN renal,17 µM
same,TGI,A498 renal,8.04 µM
same,TGI,RPMI-8226 leukemia,6.93 µM
same,TGI,OVCAR-5 ovarian,29.4 µM
same,TGI,HT29 colon,12.7 µM
same,TGI,SNB-75 CNS,23.7 µM
same,TGI,OVCAR-8 ovarian,4.1 µM
same,TGI,UACC-62 melanoma,12.7 µM
same,TGI,OVCAR-3 ovarian,9.66 µM
same,TGI,M14 melanoma,3.86 µM
same,TGI,SF-539 CNS,5.15 µM
same,TGI,RXF 393 renal,10 µM
same,TGI,U251 CNS,16.4 µM
same,TGI,K-562 leukemia,7 µM
same,TGI,NCI-H226 lung,21.9 µM
same,TGI,CCRF-CEM leukemia,11.7 µM
same,TGI,SK-MEL-28 melanoma,7.9 µM
same,TGI,SK-OV-3 ovarian,19.8 µM
same,TGI,HS 578T breast,23.4 µM
same,TGI,MDA-MB-231 breast,19.9 µM
same,TGI,UO-31 renal,4.67 µM
same,TGI,SF-295 CNS,9.73 µM
same,TGI,TK-10 renal,20.9 µM
same,TGI,A549 NSCLC,24.1 µM
same,TGI,DU-145 prostate,17.4 µM
same,TGI,MOLT-4 leukemia,7.73 µM
same,TGI,CAKI-1 renal,5.71 µM
same,TGI,786-0 renal,7.07 µM
same,TGI,HCC-2998 colon,3.53 µM
same,TGI,MALME-3M melanoma,4.39 µM
same,TGI,HCT-116 colon,7.84 µM
same,TGI,SK-MEL-2 melanoma,18.8 µM
same,TGI,MCF7 breast,9.85 µM
same,TGI,MDA-MB-435,6.82 µM
same,TGI,OVCAR-4 ovarian,13.9 µM
same,TGI,KM12 colon,8.07 µM
same,TGI,IGROV1 ovarian,16.1 µM
same,TGI,T-47D breast,13.7 µM
same,TGI,EKVX NSCLC,17.7 µM
same,TGI,NCI-H23 lung,18.9 µM
